US20090131470A1, “PYRAZOLE-SUBSTITUTED BENZIMIDAZOLE DERIVATIVES FOR USE IN THE TREATMENT OF CANCER AND AUTOIMMUNE DISORDERS” (priority 2005, published 2009)

Legend:
Type in all cases: biochemical
[1] = biological target: T1, PDK1 (Homo sapiens, UniProt O15530); assay: PDK1 kinase assay (33P peptide phosphorylation); settings: 0.01 mM ATP, 60 min at 30° C.; read-out: PDK-1 IC50
T1 sequence (O15530 1-556): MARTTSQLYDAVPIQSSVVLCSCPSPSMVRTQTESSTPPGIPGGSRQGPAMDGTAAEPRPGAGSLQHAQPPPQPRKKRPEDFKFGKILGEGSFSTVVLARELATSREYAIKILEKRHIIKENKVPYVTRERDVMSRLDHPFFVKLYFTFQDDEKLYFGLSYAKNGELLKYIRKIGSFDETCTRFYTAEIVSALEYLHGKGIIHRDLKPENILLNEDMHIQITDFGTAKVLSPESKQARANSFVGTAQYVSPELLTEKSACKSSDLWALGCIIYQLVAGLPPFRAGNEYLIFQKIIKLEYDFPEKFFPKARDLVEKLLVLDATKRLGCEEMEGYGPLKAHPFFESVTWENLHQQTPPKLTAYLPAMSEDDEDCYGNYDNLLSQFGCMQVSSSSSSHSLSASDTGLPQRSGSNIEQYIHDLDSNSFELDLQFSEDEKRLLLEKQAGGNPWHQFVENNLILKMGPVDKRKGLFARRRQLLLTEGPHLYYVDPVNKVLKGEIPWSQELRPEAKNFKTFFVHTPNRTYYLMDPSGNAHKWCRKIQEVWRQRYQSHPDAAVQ
Experimental: (§1) The assay mixture containing the inhibitor and PDK1 enzyme was mixed together in a microtiter plate in a final volume of 50 μl and incubated for 60 min at 30° C. The assay mixture contained 0.01 mM unlabeled ATP, 0.01 μCi/μl ^33P-γ-ATP, 0.075 mM peptide, 0.1 mg/ml BSA, 7.5 mM magnesium acetate, 0.05M Tris.HCl, pH 7.5, 0.5% 2-mercaptoethanol. The reaction was stopped by adding 50 μl of 50 mM phosphoric acid. 90 μl of the mixture were transferred to a pre-wetted 96-well Multiscreen MAPHNOB filtration plate (Millipore) and filtered on a vacuum manifold. The filter plate was washed with 3 successive additions of 200 μl 50 mM phosphoric acid and then with 100 μl methanol. The filtration plate was dried for 10 min at 65° C., scintillant added and phosphorylated peptide quantified in a scintillation counter (Trilux, PerkinElmer)

[2] = biological target: T2, GST-Chk1 enzyme (Homo sapiens, UniProt O14757); assay: Chk1 kinase assay (33P Chktide phosphorylation); settings: 0.01 mM ATP, 40 minutes at 30° C.; read-out: CHK-1 IC50
T2 sequence (O14757 1-476): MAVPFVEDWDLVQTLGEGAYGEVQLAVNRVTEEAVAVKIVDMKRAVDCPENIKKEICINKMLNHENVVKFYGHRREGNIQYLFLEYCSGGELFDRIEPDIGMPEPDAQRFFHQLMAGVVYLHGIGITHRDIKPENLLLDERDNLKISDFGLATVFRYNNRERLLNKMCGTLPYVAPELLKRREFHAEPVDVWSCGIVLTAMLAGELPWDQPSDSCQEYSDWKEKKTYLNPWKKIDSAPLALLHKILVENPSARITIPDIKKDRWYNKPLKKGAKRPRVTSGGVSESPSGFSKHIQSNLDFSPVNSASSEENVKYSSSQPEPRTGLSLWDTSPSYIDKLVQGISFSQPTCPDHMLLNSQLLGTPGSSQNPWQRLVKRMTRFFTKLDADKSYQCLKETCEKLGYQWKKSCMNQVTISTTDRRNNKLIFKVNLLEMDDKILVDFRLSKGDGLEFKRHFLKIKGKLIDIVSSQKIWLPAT
Experimental: as §1, with “Chk1” for “PDK1”, “40 minutes” for “60 min”, “The assay mixture contained 0.01 mM unlabeled ATP, 0.01 μCi/μl ^33P-γ-ATP, 0.075 mM peptide, 0.1 mg/ml BSA, 7.5 mM magnesium acetate, 0.05M Tris.HCl, pH 7.5, 0.5% 2-mercaptoethanol.” left out, “was” for “were”, “multi-screen” for “Multiscreen”

[3] = biological target: T3, Akt1 (Homo sapiens, UniProt P31749); assay: Akt1 kinase assay (Histone H1 substrate); settings: 200 μM ATP, read-out: AKT-1 IC50
T3 construct: purchased Upstate
Experimental: (§2) Assays for the cyclin dependent kinase activity were carried out by monitoring the phosphorylation of a synthetic peptide, HATTPKKKRK. The assay mixture containing the inhibitor and CDK-2 enzyme, complexed with cyclin A (0.4 U/ml) was mixed together in a microtiter plate in a final volume of 50 μl and incubated for 40 min at 30° C. The assay mixture contained 0.1 mM unlabeled ATP, 0.01 μCi/μl ^33P-γ-ATP, 0.03 mM peptide, 0.1 mg/ml BSA, 7.5 mM magnesium acetate, 50 mM HEPES-NaOH, pH 7.5. The reaction was stopped by adding 50 μl of 50 mM phosphoric acid. 90 μl of the mixture were transferred to a pre-wetted 96-well Multiscreen MAPHNOB filtration plate (Millipore) and filtered on a vacuum manifold. The filter plate was washed with 3 successive additions of 200 μl 50 mM phosphoric acid and then with 100 μl methanol. The filtration plate was dried for 10 min at 65° C., scintillant added and phosphorylated peptide quantified in a scintillation counter (Trilux, PerkinElmer)
Protocol for the Akt assay is the same for CDK2 except that, 3 nM Akt1 (Upstate) was used with Histone H1 as substrate with a final ATP concentration of 200 μM. The reaction was incubated at 30° C. for 40 minutes.

[4] = biological target: T4, PKA (Homo sapiens, UniProt P17612); assay: PKA kinase assay (Kemptide substrate); settings: 100 μM ATP
T4 construct: purchased Upstate
Experimental: as §2, with “The” for “Assays for the cyclin dependent kinase activity were carried out by monitoring the phosphorylation of a synthetic peptide, HATTPKKKRK. The”
The PKA assay was incubated at 30° C. for 30 minutes.

[5] = biological target: CDK-2 enzyme, complexed with cyclin A (Homo sapiens, UniProt P24941); assay: CDK2 kinase assay (33P peptide phosphorylation); settings: 0.1 mM ATP, cyclin A complex
Experimental: as §2, with “The” for “Assays for the cyclin dependent kinase activity were carried out by monitoring the phosphorylation of a synthetic peptide, HATTPKKKRK. The”

T3 sequence (P31749 whole entry, species assumed): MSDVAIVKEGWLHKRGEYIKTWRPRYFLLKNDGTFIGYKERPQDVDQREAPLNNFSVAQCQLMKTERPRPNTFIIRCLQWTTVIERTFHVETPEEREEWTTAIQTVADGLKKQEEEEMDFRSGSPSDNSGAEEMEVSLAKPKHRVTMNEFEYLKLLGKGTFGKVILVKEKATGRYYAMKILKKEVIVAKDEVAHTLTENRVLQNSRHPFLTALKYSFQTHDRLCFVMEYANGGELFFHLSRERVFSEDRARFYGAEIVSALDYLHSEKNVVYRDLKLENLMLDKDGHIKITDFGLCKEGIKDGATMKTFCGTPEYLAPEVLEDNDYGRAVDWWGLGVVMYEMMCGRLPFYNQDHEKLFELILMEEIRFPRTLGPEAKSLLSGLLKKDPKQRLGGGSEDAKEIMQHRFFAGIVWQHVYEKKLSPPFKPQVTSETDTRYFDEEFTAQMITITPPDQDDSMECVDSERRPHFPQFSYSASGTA

O=C(NC1CCNCC1)c1c[nH]nc1-c1nc2ccccc2[nH]1 [Example 20]
IC50 [1]: 0.323 µM | IC50 [2]: 0.252 µM | IC50 [3]: > 50 µM | IC50 [4]: 32.1 µM | IC50 [5]: 6.36 µM

Cc1[nH]nc(-c2nc3ccc(NC(=O)C(C)C)cc3[nH]2)c1C(=O)NC1CCN(C)CC1 [Example 21]
IC50 [1]: 0.074 µM | IC50 [2]: 0.006 µM | IC50 [3]: > 50 µM | IC50 [4]: 13.1 µM | IC50 [5]: 21.3 µM

Cc1[nH]nc(-c2nc3cc4cn[nH]c4cc3[nH]2)c1C(=O)NCC1CCNCC1 [Example 22]
IC50 [1]: 0.11 µM | IC50 [2]: 0.094 µM | IC50 [3]: 36.1 µM | IC50 [4]: 6.4 µM | IC50 [5]: 31 µM

Cc1[nH]nc(-c2nc3cc(-c4cccc5c4CCO5)ccc3[nH]2)c1C(=O)NC1CCNCC1 [Example 23]
IC50 [1]: 0.125 µM | IC50 [2]: 0.015 µM | IC50 [3]: 25.6 µM | IC50 [4]: 5.36 µM | IC50 [5]: 21.1 µM

Cc1[nH]nc(-c2nc3cc(C(=O)NC(C)C)ccc3[nH]2)c1C(=O)NC1CCNCC1 [Example 24]
IC50 [1]: 0.046 µM | IC50 [2]: 0.036 µM | IC50 [3]: 34.5 µM | IC50 [4]: 10.7 µM | IC50 [5]: 6.42 µM

Cc1[nH]nc(-c2nc3cc4ccccc4cc3[nH]2)c1C(=O)NCC1CCCN1 (stereo not drawn) [Example 26]
IC50 [1]: 0.521 µM | IC50 [2]: 0.309 µM | IC50 [3]: > 50 µM | IC50 [4]: 34.7 µM | IC50 [5]: 34.2 µM

Cc1[nH]nc(-c2nc3cc4ccccc4cc3[nH]2)c1C(=O)NCC1CCNC1 (stereo not drawn) [Example 27]
IC50 [1]: 0.143 µM | IC50 [2]: 0.004 µM | IC50 [3]: > 50 µM | IC50 [4]: 8.31 µM | IC50 [5]: 6.24 µM

Cc1[nH]nc(-c2nc3cc4ccccc4cc3[nH]2)c1C(=O)NCC1CCCNC1 (stereo not drawn) [Example 28]
IC50 [1]: 0.125 µM | IC50 [2]: 0.008 µM | IC50 [3]: > 50 µM | IC50 [4]: 8.99 µM | IC50 [5]: 8.5 µM

Cc1cc2nc(-c3n[nH]c(C)c3C(=O)NC3CCN(C)CC3)[nH]c2cc1C [Example 29]
IC50 [1]: 0.18 µM | IC50 [2]: 0.016 µM | IC50 [3]: > 50 µM | IC50 [4]: 5.98 µM | IC50 [5]: 8.24 µM

Cc1[nH]nc(-c2nc3ccccc3[nH]2)c1C(=O)NC1CCN(C)CC1 [Example 30]
IC50 [1]: 0.139 µM | IC50 [2]: 0.0635 µM | IC50 [3]: 11.8 µM | IC50 [4]: 20.2 µM | IC50 [5]: 2.21 µM

COCCNC(=O)c1ccc2nc(-c3n[nH]c(C)c3C(=O)NC3CCNCC3)[nH]c2c1 [Example 31]
IC50 [1]: 0.073 µM | IC50 [2]: 0.002 µM | IC50 [3]: 31.4 µM | IC50 [4]: 8.04 µM | IC50 [5]: 11.4 µM

Cc1[nH]nc(-c2nc3ccc(C(=O)NCC(C)c4ccccc4)cc3[nH]2)c1C(=O)NC1CCNCC1 (stereo not drawn) [Example 32]
IC50 [1]: 0.036 µM | IC50 [2]: 0.003 µM | IC50 [3]: 18.1 µM | IC50 [4]: 6.5 µM | IC50 [5]: 15.6 µM

Cc1[nH]nc(-c2nc3ccc(NC(=O)CC(C)C)cc3[nH]2)c1C(=O)NC1CCN(C)CC1 [Example 33]
IC50 [1]: 0.095 µM | IC50 [2]: 0.003 µM | IC50 [3]: 47.5 µM | IC50 [4]: 13.1 µM | IC50 [5]: 21.3 µM

Cc1[nH]nc(-c2nc3cc(F)c(NC(=O)C4CC4)cc3[nH]2)c1C(=O)NC1CCN(C)CC1 [Example 34]
IC50 [1]: 0.216 µM | IC50 [2]: 0.013 µM | IC50 [3]: 44.1 µM | IC50 [4]: 28.4 µM | IC50 [5]: 20.6 µM

Cc1[nH]nc(-c2nc3ccc(C(=O)NCC(O)c4ccccc4)cc3[nH]2)c1C(=O)NC1CCNCC1 (stereo not drawn) [Example 35]
IC50 [1]: 0.057 µM | IC50 [2]: 0.037 µM | IC50 [3]: 10.6 µM | IC50 [4]: 5.31 µM | IC50 [5]: 13.8 µM

Cc1[nH]nc(-c2nc3ccc(C(C)(C)C)cc3[nH]2)c1C(=O)NC1CCNCC1 [Example 37]
IC50 [1]: 0.049 µM | IC50 [2]: 0.006 µM | IC50 [3]: > 10 µM | IC50 [4]: 4.95 µM | IC50 [5]: 1.85 µM

Cc1[nH]nc(-c2nc3ccc(C(F)(F)F)cc3[nH]2)c1C(=O)NC1CCNCC1 [Example 38]
IC50 [1]: 0.032 µM | IC50 [2]: 0.058 µM | IC50 [3]: > 10 µM | IC50 [4]: 16.9 µM | IC50 [5]: 19.3 µM

Cc1[nH]nc(-c2nc3ccc(C(F)(F)F)cc3[nH]2)c1C(=O)NCC1CCCNC1 (stereo not drawn) [Example 39]
IC50 [1]: 0.086 µM | IC50 [2]: 0.049 µM | IC50 [3]: > 10 µM | IC50 [4]: > 50 µM | IC50 [5]: > 50 µM

Cc1[nH]nc(-c2nc3ccc(C4CC4)cc3[nH]2)c1C(=O)NC1CCNCC1 [Example 40]
IC50 [1]: 0.02 µM | IC50 [2]: 0.022 µM | IC50 [3]: > 10 µM | IC50 [4]: 2.86 µM | IC50 [5]: 23.7 µM

Cc1[nH]nc(-c2nc3ccc(C(C)(C)C)cc3[nH]2)c1C(=O)N[C@@H]1CN2CCC1CC2 [Example 41]
IC50 [1]: 0.052 µM | IC50 [2]: 0.025 µM | IC50 [3]: > 10 µM | IC50 [4]: 2.12 µM | IC50 [5]: > 50 µM

Cc1[nH]nc(-c2nc3ccc(C(C)C)cc3[nH]2)c1C(=O)NC1CN2CCC1CC2 (stereo not drawn) [Example 42]
IC50 [1]: 0.045 µM | IC50 [2]: 0.05 µM | IC50 [3]: > 10 µM | IC50 [4]: 3.82 µM | IC50 [5]: 9.67 µM

Cc1[nH]nc(-c2nc3ccc(C(C)C)cc3[nH]2)c1C(=O)N[C@@H]1CN2CCC1CC2 [Example 43]
IC50 [1]: 0.022 µM | IC50 [2]: 0.026 µM | IC50 [3]: > 10 µM | IC50 [4]: 2.02 µM | IC50 [5]: 14.7 µM

Cc1[nH]nc(-c2nc3cc(Cl)c(C(C)C)cc3[nH]2)c1C(=O)NC1CN2CCC1CC2 (stereo not drawn) [Example 44]
IC50 [1]: 0.14 µM | IC50 [2]: 0.091 µM | IC50 [3]: > 10 µM | IC50 [4]: 12 µM | IC50 [5]: > 50 µM

Cc1[nH]nc(-c2nc3cc(Cl)c(C(C)C)cc3[nH]2)c1C(=O)NC1CCNCC1 [Example 45]
IC50 [1]: 0.013 µM | IC50 [2]: 0.013 µM | IC50 [3]: > 10 µM | IC50 [4]: 5.13 µM | IC50 [5]: 11.9 µM
